The results in this text go back to patent US10501445B2, “Quinoxalinones and dihydroquinoxalinones as respiratory syncytial virus antiviral agents” (JANSSEN SCIENCES IRELAND UC, priority 2013, dated 2019).

For data set [1], the system named is rgRSV224 virus. As to the kind of experiment: Antiviral activity: rgRSV224 (GFP-expressing RSV) replication in HeLa cells, GFP expression readout. Type of data set: cell-based. As to conditions: human respiratory syncytial virus, 72 h, read-out: WT activity EC50. The protocol:
(§1) Black 96-well clear-bottom microtiter plates (Corning, Amsterdam, The Netherlands) were filled in duplicate using a customized robot system with serial 4-fold dilutions of compound in a final volume of 50 μl culture medium [RPMI medium without phenol red, 10% FBS, 0.04% gentamycin (50 mg/ml) and 0.5% DMSO]. Then, 100 μl of a HeLa cell suspension (5×10^4 cells/ml) in culture medium was added to each well followed by the addition of 50 μl rgRSV224 (MOI=0.02) virus in culture medium using a multidrop dispenser (Thermo Scientific, Erembodegem, Belgium). rgRSV224 virus is an engineered virus that includes an additional GFP gene (Hallak et al, 2000) and was in-licensed from the NIH (Bethesda, Md., USA). Medium, virus- and mock-infected controls were included in each test. Cells were incubated at 37° C. in a 5% CO2 atmosphere. Three days post-virus exposure, viral replication was quantified by measuring GFP expression in the cells by a MSM laser microscope (Tibotec, Beerse, Belgium). The EC50 was defined as the 50% inhibitory concentration for GFP expression. In parallel, compounds were incubated for three days in a set of white 96-well microtitier plates (Corning) and the cytotoxicity of compounds in HeLa cells was determined by measuring the ATP content of the cells using the ATPlite kit (PerkinElmer, Zaventem, Belgium) according to the manufacturer's instructions. The CC50 was defined as the 50% concentration for cytotoxicity.

The nature of data set [2]: in vitro. Format: cell-based. As to conditions: human. The protocol:
as §1

As a reminder, the EC50 is the concentration that produces a half-maximal response. Broadly, the CC50 is the concentration giving 50% cytotoxicity. A higher CC50 goes with lower toxicity to the cells. With `O=c1cnc2ccc(F)cc2n1Cc1nc2cc(F)ccc2n1CCCCF` [Compound P9, 7-fluoro-1-((5-fluoro-1-(4-fluorobutyl)-1H-benzo[d]imidazol-2-yl)methyl)quinoxalin-2(1H)-one], the concentration for a half-maximal effect (EC50) in data set [1] amounted to 0.27 µM. The CC50 at 3 days in data set [2] is > 100 µM. For `O=c1cnc2ccc(Br)cc2n1Cc1nc2cc(F)ccc2n1CCCCF` [Compound P1, 7-bromo-1-{[5-fluoro-1-(4-fluorobutyl)-1H-benzimidazol-2-yl]methyl}quinoxalin-2(1H)-one] the same measures were 0.071 µM and 87 µM.

Consider `CN(C)Cc1cccc(-c2ccc3ncc(=O)n(Cc4nc5cc(F)ccc5n4CCCCF)c3c2)c1` [Compound P7, 7-(3-((dimethylamino)methyl)phenyl)-1-((5-fluoro-1-(4-fluorobutyl)-1H-benzo[d]imidazol-2-yl)methyl)quinoxalin-2(1H)-one], for which the EC50 in data set [1] stood at 0.099 µM. Further, in data set [2], the CC50 at 3 days turned out to be 17.6 µM. Take `CS(=O)(=O)CCCn1c(Cn2c(=O)cnc3ccc(F)cc32)cc2cc(Br)ccc21` [Compound P28, 1-((5-bromo-1-(3-(methylsulfonyl)propyl)-1H-indol-2-yl)methyl)-7-fluoroquinoxalin-2(1H)-one]: the EC50 in data set [1] is 0.018 µM. In the case of `Cc1nc(C)c(-c2ccc3ncc(=O)n(Cc4nc5cc(F)ccc5n4CCCCF)c3c2)s1` [Compound P4, 7-(2,4-dimethylthiazol-5-yl)-1-((5-fluoro-1-(4-fluorobutyl)-1H-benzo[d]imidazol-2-yl)methyl)quinoxalin-2(1H)-one], the EC50 in data set [1] stood at 4.78 µM. The compound also gave a CC50 at 3 days in data set [2] of 31.1 µM. For `CS(=O)(=O)CCCn1c(CN2C(=O)CN(C3CC3)c3ccncc32)nc2cc(Cl)ccc21` [Compound P26, 4-((5-chloro-1-(3-(methylsulfonyl)propyl)-1H-benzo[d]imidazol-2-yl)-methyl)-1-cyclopropyl-1,2-dihydropyrido[3,4-b]pyrazin-3(4H)-one] the same measures were 0.015 µM and > 100 µM. In the same order, the values of `CC(C)CCn1c(CN2C(=O)CN(C3CC3)c3ccncc32)nc2nc(Cl)ccc21` [Compound P22, 4-((5-chloro-1-isopentyl-1H-imidazo[4,5-b]pyridin-2-yl)methyl)-1-cyclopropyl-1,2-dihydropyrido[3,4-b]pyrazin-3(4H)-one] are 0.12 µM and 60.7 µM. For `O=C1CN(C2CC2)c2ccncc2N1Cc1nc2cc(F)ccc2n1CCCCF` [Compound P12, 1-cyclopropyl-4-((5-fluoro-1-(4-fluorobutyl)-1H-benzo[d]imidazol-2-yl)methyl)-1,2-dihydropyrido[3,4-b]pyrazin-3(4H)-one] the same measures were 0.011 µM and 50.1 µM.

Take `Cn1nc(C(F)(F)F)cc1-c1ccc2ncc(=O)n(Cc3nc4cc(F)ccc4n3CCCCF)c2c1` [Compound P5, 1-((5-fluoro-1-(4-fluorobutyl)-1H-benzo[d]imidazol-2-yl)methyl)-7-(1-methyl-3-(trifluoromethyl)-1H-pyrazol-5-yl)quinoxalin-2(1H)-one]: the 50% effective concentration (EC50) in data set [1] was found to be 4.89 µM. The CC50 at 3 days in data set [2] came out at 53.3 µM. Consider `CC(C)CCn1c(Cn2c(=O)cnc3ccc(F)cc32)nc2nc(Cl)ccc21` [Compound P19, 1-((5-chloro-1-isopentyl-1H-imidazo[4,5-b]pyridin-2-yl)methyl)-7-fluoroquinoxalin-2(1H)-one], for which the concentration for a half-maximal effect (EC50) in data set [1] is 0.042 µM. Further, the CC50 at 3 days in data set [2] was > 100 µM.

Regarding `CC(C)CCn1c(Cn2c(=O)cnc3ccc(-c4ccncc4)cc32)nc2nc(Cl)ccc21` [Compound P14, 1-((5-chloro-1-isopentyl-1H-imidazo[4,5-b]pyridin-2-yl)methyl)-7-(pyridin-4-yl)quinoxalin-2(1H)-one], in data set [1], the half-maximal effective concentration (EC50) amounted to 0.061 µM. In data set [2], this compound registered a CC50 at 3 days of 14.7 µM.

In the case of `CC(C)CCn1c(Cn2c(=O)cnc3ccc(-c4ccsc4)cc32)nc2nc(Cl)ccc21` [Compound P15, 1-((5-chloro-1-isopentyl-1H-imidazo[4,5-b]pyridin-2-yl)methyl)-7-(thiophen-3-yl)-quinoxalin-2(1H)-one], in data set [1], the concentration giving a half-maximal response (EC50) was determined as 0.34 µM. For the same compound, it took 27.6 µM to reach half-maximal cytotoxicity in data set [2] (CC50 at 3 days). `O=C1CN(C2CC2)c2ccncc2N1Cc1nc2cc(Cl)ccc2n1CCCC(F)(F)F` [Compound P27, 4-((5-chloro-1-(4,4,4-trifluorobutyl)-1H-benzo[d]imidazol-2-yl)methyl)-1-cyclopropyl-1,2-dihydropyrido[3,4-b]pyrazin-3(4H)-one]: the half-maximal effective concentration (EC50) in data set [1] is 0.029 µM. Moreover, in data set [2], the CC50 at 3 days was > 100 µM. For `O=c1cnc2cc(F)ccc2n1Cc1nc2cc(F)ccc2n1CCCCF` [Compound P10, 6-fluoro-1-((5-fluoro-1-(4-fluorobutyl)-1H-benzo[d]imidazol-2-yl)methyl)quinoxalin-2(1H)-one] the same measures were 1.04 µM and > 100 µM. For `CC(C)CCn1c(Cn2c(=O)cnc3ccc(-c4cccn4C(=O)OC(C)(C)C)cc32)nc2nc(Cl)ccc21` [Compound P16, tert-butyl 2-(4-((5-chloro-1-isopentyl-1H-imidazo[4,5-b]pyridin-2-yl)methyl)-3-oxo-3,4-dihydroquinoxalin-6-yl)-1H-pyrrole-1-carboxylate] the same measures were 0.51 µM and 42.5 µM. `O=c1cnc2cnccc2n1Cc1nc2cc(F)ccc2n1CCCCF` [Compound P11, 1-((5-fluoro-1-(4-fluorobutyl)-1H-benzo[d]imidazol-2-yl)methyl)pyrido[3,4-b]pyrazin-2(1H)-one]: the EC50 in data set [1] turned out to be 7.21 µM. Besides, the half-maximal cytotoxic concentration (CC50) at 3 days in data set [2] was > 100 µM. For `CC(C)CCn1c(Cn2c(=O)cnc3ccc(Br)cc32)nc2nc(Cl)ccc21` [Compound P13, 7-bromo-1-((5-chloro-1-isopentyl-1H-imidazo[4,5-b]pyridin-2-yl)methyl) quinoxalin-2(1H)-one] the same measures were 0.004 µM and 46.5 µM. For `CS(=O)(=O)CCCn1c(Cn2c(=O)cnc3ccc(F)cc32)nc2cc(Br)ccc21` [Compound P24, 1-((5-bromo-1-(3-(methylsulfonyl)propyl)-1H-benzo[d]imidazol-2-yl)methyl)-7-fluoroquinoxalin-2(1H)-one] the same measures were 0.004 µM and 78.5 µM. In the same order, the values of `CC(C)CCn1c(Cn2c(=O)cnc3cnccc32)nc2nc(Cl)ccc21` [Compound P21, 1-((5-chloro-1-isopentyl-1H-imidazo[4,5-b]pyridin-2-yl)methyl)pyrido[4,3-b]pyrazin-2(1H)-one] are > 10.1 µM and > 100 µM. `CS(=O)(=O)CCCn1c(CN2C(=O)CN(C3CC3)c3ccncc32)nc2cc(Br)ccc21` [Compound P23, 4-((5-bromo-1-(3-(methylsulfonyl)propyl)-1H-benzo[d]imidazol-2-yl)methyl)-1-cyclopropyl-1,2-dihydropyrido[3,4-b]pyrazin-3(4H)-one]: the EC50 in data set [1] turned out to be 0.0015 µM. For the same compound, the CC50 at 3 days in data set [2] was determined as 71.3 µM.

On to `CC(C)CCn1c(Cn2c(=O)cnc3ccc(-c4cncnc4)cc32)nc2nc(Cl)ccc21` [Compound P17, 1-((5-chloro-1-isopentyl-1H-imidazo[4,5-b]pyridin-2-yl)methyl)-7-(pyrimidin-5-yl)quinoxalin-2(1H)-one], for which the EC50 in data set [1] is 0.48 µM. Also, in data set [2], the CC50 at 3 days was > 100 µM.

Regarding `O=c1cnc2ccc(-c3ccc(C(F)(F)F)cc3)cc2n1Cc1nc2cc(F)ccc2n1CCCCF` [Compound P3, 1-((5-fluoro-1-(4-fluorobutyl)-1H-benzo[d]imidazol-2-yl)methyl)-7-(4-(trifluoromethyl)phenyl)quinoxalin-2(1H)-one], the EC50 in data set [1] was > 10.1 µM. In addition, the CC50 at 3 days in data set [2] was found to be 42.4 µM. In the same order, the values of `O=c1cnc2ccc(-c3ccncc3)cc2n1Cc1nc2cc(F)ccc2n1CCCCF` [Compound P8, 1-((5-fluoro-1-(4-fluorobutyl)-1H-benzo[d]imidazol-2-yl)methyl)-7-(pyridin-4-yl)quinoxalin-2(1H)-one] are 2.69 µM and 86.8 µM. For `CC(C)CCn1c(Cn2c(=O)cnc3ccc(-c4ccc(F)cc4)cc32)nc2nc(Cl)ccc21` [Compound P18, 1-((5-chloro-1-isopentyl-1H-imidazo[4,5-b]pyridin-2-yl)methyl)-7-(4-fluorophenyl)quinoxalin-2(1H)-one] the same measures were 3.33 µM and 51.5 µM. For `CC(C)CCn1c(Cn2c(=O)cnc3cc(F)ccc32)nc2nc(Cl)ccc21` [Compound P20, 1-((5-chloro-1-isopentyl-1H-imidazo[4,5-b]pyridin-2-yl)methyl)-6-fluoroquinoxalin-2(1H)-one] the same measures were 0.032 µM and > 100 µM. As to `CS(=O)(=O)CCCn1c(Cn2c(=O)cnc3cc(F)ccc32)nc2cc(Br)ccc21` [Compound P25, 1-((5-bromo-1-(3-(methylsulfonyl)propyl)-1H-benzo[d]imidazol-2-yl)methyl)-6-fluoroquinoxalin-2(1H)-one], the concentration giving a half-maximal response (EC50) in data set [1] is 0.0065 µM. Also, the midpoint of cytotoxicity in data set [2], the CC50 at 3 days, lay at 64 µM. Take `CS(=O)(=O)CCCn1c(Cn2c(=O)cnc3cc(F)ccc32)cc2cc(Br)ccc21` [Compound P29, 1-((5-bromo-1-(3-(methylsulfonyl)propyl)-1H-indol-2-yl)methyl)-6-fluoroquinoxalin-2(1H)-one]: in data set [1], the EC50 was found to be 0.055 µM. The compound also returned a CC50 at 3 days in data set [2] of 9.73 µM.
